The source of these data is patent US11434249B1, “ASK1 inhibitor compounds and uses thereof” (Seal Rock Therapeutics, Inc., priority 2018, dated 2022).

The structures appear in SMILES notation. Where only a bound is given, the exact number is not on record here.

ASK1, sequence (Q99683 whole entry): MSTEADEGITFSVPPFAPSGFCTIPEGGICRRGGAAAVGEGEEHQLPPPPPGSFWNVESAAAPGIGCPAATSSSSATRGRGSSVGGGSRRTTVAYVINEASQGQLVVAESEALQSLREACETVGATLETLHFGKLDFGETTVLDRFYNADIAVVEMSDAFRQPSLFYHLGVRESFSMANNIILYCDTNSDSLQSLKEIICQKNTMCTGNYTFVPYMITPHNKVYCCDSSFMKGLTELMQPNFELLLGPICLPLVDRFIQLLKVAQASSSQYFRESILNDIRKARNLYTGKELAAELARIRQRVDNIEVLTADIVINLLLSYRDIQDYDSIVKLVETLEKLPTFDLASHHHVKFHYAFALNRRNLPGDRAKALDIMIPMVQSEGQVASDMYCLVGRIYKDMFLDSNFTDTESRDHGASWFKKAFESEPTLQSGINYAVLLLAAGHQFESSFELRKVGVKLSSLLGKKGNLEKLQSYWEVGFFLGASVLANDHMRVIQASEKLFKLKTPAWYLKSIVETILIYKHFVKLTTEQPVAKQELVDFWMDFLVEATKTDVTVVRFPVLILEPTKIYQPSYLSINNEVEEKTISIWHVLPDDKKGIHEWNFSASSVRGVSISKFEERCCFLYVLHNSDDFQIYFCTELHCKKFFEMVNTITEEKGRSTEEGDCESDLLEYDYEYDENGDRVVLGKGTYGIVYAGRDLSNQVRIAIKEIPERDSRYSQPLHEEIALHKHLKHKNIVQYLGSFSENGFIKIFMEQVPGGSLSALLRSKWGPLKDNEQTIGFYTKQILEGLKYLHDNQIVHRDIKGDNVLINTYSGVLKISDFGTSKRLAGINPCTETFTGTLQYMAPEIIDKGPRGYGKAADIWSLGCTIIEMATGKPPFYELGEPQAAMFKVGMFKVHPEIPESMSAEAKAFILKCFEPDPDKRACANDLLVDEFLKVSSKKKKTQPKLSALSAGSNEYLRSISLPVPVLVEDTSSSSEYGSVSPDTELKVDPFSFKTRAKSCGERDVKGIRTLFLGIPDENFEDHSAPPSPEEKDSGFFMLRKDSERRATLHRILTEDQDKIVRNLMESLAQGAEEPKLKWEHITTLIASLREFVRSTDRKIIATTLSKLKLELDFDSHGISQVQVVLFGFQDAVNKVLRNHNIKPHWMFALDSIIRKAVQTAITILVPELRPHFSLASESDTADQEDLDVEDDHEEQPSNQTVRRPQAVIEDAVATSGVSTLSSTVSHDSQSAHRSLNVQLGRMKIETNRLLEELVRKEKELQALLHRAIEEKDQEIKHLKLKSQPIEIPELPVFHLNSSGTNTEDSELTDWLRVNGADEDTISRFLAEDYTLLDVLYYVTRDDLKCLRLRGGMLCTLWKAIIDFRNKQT

One experiment has as its target ASK1 (Homo sapiens (Human), UniProt Q99683). Briefly: ASK1 Kinase Assay (Promega ASK1 Kinase Enzyme System, ADP-Glo luminescence). The experiment is classed as biochemical. The note with it: at 10 μM compound; enzyme 50 nM, ATP 10 μM. The protocol:
The ASK1 enzymatic assay was run following Promega ASK1 Kinase Enzyme System (Cat #V3881). The kit provides the protocol, enzymes and all reagents necessary to run an assay.
The compounds, enzyme, substrate and ATP were diluted in provided assay buffer. The final concentration of the enzyme was 50 nM, substrate (Myelin basic protein) 1 μg/mL and ATP 10 μM. The compound and the enzyme were pre-incubated in a 384-well white solid bottom plate (Greiner, Cat #784075) for 10 minutes. After incubation, the substrate and ATP were added and incubated for an additional 60 minutes. After 60 minutes, ADP-Glo™ was added and the plate was incubated for another 40 minutes. After 40 minutes, Kinase Detection Reagent was added and the plate was incubated for 45 minutes. After 45 minutes, the plate was read on a Perkin Elmer EnVision using luminescence read (0.5 seconds/well).
With `O=C1c2scc(-c3ccccc3)c2CN1c1cccc(-c2nncn2C2CC2)n1` [Example 7, 5-(6-(4-cyclopropyl-4H-1,2,4-triazol-3-yl)pyridin-2-yl)-3-phenyl-4,5-dihydro-6H-thieno[2,3-c]pyrrol-6-one], the inhibition at 10 µM turned out to be 45%.

Still in this experiment, the particulars now being: enzyme 50 nM, Myelin basic protein 1 μg/mL, ATP 10 μM.
As to `O=C1c2sccc2CN1c1cccc(-c2nncn2C2CC2)n1` [Example 1, 5-(6-(4-Cyclopropyl-4H-1,2,4-triazol-3-yl)pyridin-2-yl)-4,5-dihydro-6H-thieno[2,3-c]pyrrol-6-one], the half-maximal inhibitory concentration (IC50) was < 1000 nM.

Turning to `CC(=O)c1ccccc1-c1cc2c(s1)C(=O)N(c1cccc(-c3nncn3C3CC3)n1)C2` [Example 2, 2-(2-Acetylphenyl)-5-(6-(4-cyclopropyl-4H-1,2,4-triazol-3-yl)pyridin-2-yl)-4,5-dihydro-6H-thieno[2,3-c]pyrrol-6-one], the half-maximal inhibitory concentration (IC50) is < 1000 nM.

`O=C1c2sc(C3CCOCC3)cc2CN1c1cccc(-c2nncn2C2CC2)n1` [Example 4, 5-(6-(4-cyclopropyl-4H-1,2,4-triazol-3-yl)pyridin-2-yl)-2-(tetrahydro-2H-pyran-4-yl)-4,5-dihydro-6H-thieno[2,3-c]pyrrol-6-one]: the IC50 is < 1000 nM.

`Cc1cc2c(s1)C(=O)N(c1cccc(-c3nncn3C3CC3)n1)C2` [Example 5, 5-(6-(4-cyclopropyl-4H-1,2,4-triazol-3-yl)pyridin-2-yl)-2-methyl-4,5-dihydro-6H-thieno[2,3-c]pyrrol-6-one]: the 50% inhibitory concentration (IC50) is < 1000 nM.

As for `CCc1cc2c(s1)C(=O)N(c1cccc(-c3nncn3C3CC3)n1)C2` [Example 6, 5-(6-(4-cyclopropyl-4H-1,2,4-triazol-3-yl)pyridin-2-yl)-2-ethyl-4,5-dihydro-6H-thieno[2,3-c]pyrrol-6-one], the IC50 is < 1000 nM.

Regarding `Cc1csc2c1CN(c1cccc(-c3nncn3C3CC3)n1)C2=O` [Example 9, 5-(6-(4-cyclopropyl-4H-1,2,4-triazol-3-yl)pyridin-2-yl)-3-methyl-4,5-dihydro-6H-thieno[2,3-c]pyrrol-6-one], the IC50 is < 1000 nM.

Regarding `O=C1c2scc(Br)c2CN1c1cccc(-c2nncn2C2CC2)n1` [Example 10, 3-bromo-5-(6-(4-cyclopropyl-4H-1,2,4-triazol-3-yl)pyridin-2-yl)-4,5-dihydro-6H-thieno[2,3-c]pyrrol-6-one], the IC50 is < 1000 nM.

In turn, `CC(C)CNc1csc2c1CN(c1cccc(-c3nncn3C3CC3)n1)C2=O` [Example 11, 5-(6-(4-cyclopropyl-4H-1,2,4-triazol-3-yl)pyridin-2-yl)-3-(isobutylamino)-4,5-dihydro-6H-thieno[2,3-c]pyrrol-6-one] displayed an IC50 of 1000 to 10000 nM.

Turning to `O=C1c2sc3ccccc3c2CN1c1cccc(-c2nncn2C2CC2)n1` [Example 12, 2-(6-(4-cyclopropyl-4H-1,2,4-triazol-3-yl)pyridin-2-yl)-1,2-dihydro-3H-benzo[4,5]thieno[2,3-c]pyrrol-3-one], the IC50 is < 1000 nM.

As for `COc1cc2c(s1)C(=O)N(c1cccc(-c3nncn3C3CC3)n1)C2` [Example 13, 5-(6-(4-cyclopropyl-4H-1,2,4-triazol-3-yl)pyridin-2-yl)-2-methoxy-4,5-dihydro-6H-thieno[2,3-c]pyrrol-6-one], the IC50 was < 1000 nM.

`CC(C)n1cnnc1-c1cccc(N2Cc3ccsc3C2=O)n1` [Example 14, 5-(6-(4-isopropyl-4H-1,2,4-triazol-3-yl)pyridin-2-yl)-4,5-dihydro-6H-thieno[2,3-c]pyrrol-6-one]: the IC50 was < 1000 nM.
